From patent US20230338463A1, “ICD PEPTIDE AND USE THEREOF FOR HAVING CYTOTOXIC ACTIVITY ON CANCER CELLS” (NATIONAL TSING HUA UNIVERSITY, priority 2022, published 2023)
Non-standard residues stand in square brackets, D forms with d. Residues, ends and D or L forms follow the SMILES beside them. 2Nal = N[C@@H](Cc1ccc2ccccc2c1)C(=O)O

Experiments:
[1] = tested on: OECM-1 cells (gingival epidermoid carcinoma); conditions: human, 24 h
Text: (§1) Three non-small cell lung cancer cell lines (H1975, A549, PC9) and two oral cancer cell lines (CGNHC9, OECM-1) were used in the present invention. H1975 is the non-small cell lung carcinoma tissue, A549 is the adenocarcinomic alveolar basal epithelial cells and PC9 is the non-small cell lung cancer with EGFR mutation. CGNHC9 and OECM-1 cell lines refer to oral squamous cell carcinoma and gingival epidermoid carcinoma respectively. The abovemetioned cell lines were derived from human origin and being cultured in the humidified incubator containing 5% CO2 at 37° C. CGNHC9 cell line was cultured in Dulbecco’s modified Eagle’s medium (GIBCO Life Technologies Corporation, NY, USA) with 10% fetal bovine serum (FBS), 2 mM L-glutamine and 1% penicillin/ streptomycin and Roswell Park Memorial Institute 1640 (RPMI 1640, GIBCO Life Technologies Corporation, NY, USA) medium with 10% fetal bovine serum (FBS), 2 mM L-glutamine and 1% penicillin/ streptomycin was used as the culture medium for the rest of the cell lines.
(§2) The anticancer activity of ICD peptides include, not limited, SEQ ID NO: 1 and its derivative peptides (SEQ ID NO: 2, SEQ ID NO: 3, SEQ ID NO: 4, and SEQ ID NO: 5) was using the 3-(4,5-Dimethyl-2-thiazolyl)-2,5-diphenyl-2H-tetrazolium bromide (MTT, Sigma Aldrich, St. Louis, MO, USA) colorimetric assay for cell viability test. The cells include, not limited, H1975, A549, PC9, CGNHC9, OECM-1, MN-11 and HFW cells/cell lines.
(§3) The cells were seeded in the 96-well plate at 5000 cells/well under the environment of humidified 5% CO2 and the temperature of 37° C. for 24 hours. The medium was removed from the well before the fresh medium containing different concentrations of ICD peptides was added and incubated for 24 hours. Medium with PBS solution was used as control group. All ICD peptides were diluted serially from 100 µM to 0.78 µM in ddH2O before adding in the medium. After 24 hours of ICD peptide treatment, fresh medium with 10% MTT solution (5 mg/mL) was incubated for additional 4 hours in advance of dissolving the formazan crystal in 100 µL DMSO (Dimethyl sulfoxide, Sigma Aldrich) solution. The calculation of cell survival rate was completed by measuring the absorbance at 570 nm using microplate reader (TECAN Sunrise ELISA Reader).
(§4) The cell survival was calculated from the treated cells relative to the control (100% viable cells) using the mean of three independent experiments and expressed as a 50% inhibitory concentration (IC50).
(§5) The percentage of cell viability was calculated using the following formula: […]
(§6) The half inhibition concentration (IC50) is the concentration required by the drug to reach fifty percent inhibition. In one embodiment, the SEQ ID NO: 1 and its derivative peptides (SEQ ID NO:2, SEQ ID NO:3, SEQ ID NO:4, SEQ ID NO: 5) was used for IC50 test via MTT colorimetric assay.

[2] = tested on: PC9 cells (non-small cell lung cancer with EGFR mutation); conditions: human, 24 h
Text: as §1, §2, §3, §4, §5, §6

[3] = tested on: MN-11 cells (murine fibrosarcoma); type: cell-based
Text: Medium with PBS solution was used as control group.
Besides, MTT assay was used to test the cell viability of the murine fibrosarcoma MN-11 cell line. Among the peptides, Dip-P-113 had the lowest cytotoxicity against MN-11 cells (FIG. 1F).

MN-11 cell line = type: cell-based, murine; conditions: 2 h
Experimental: Besides, evaluation of the killing kinetics of Nal-P-113, Bip-P-113 and Dip-P-113 for MN-11 was determined by MTT assay. Two-fold half 1inhibitory concentration (2 × IC50) was chosen for the experiments and the results were recorded at selected time points (30 mins, 1 hour, 2 hours and 4 hours). […] In 2 hours, the cell survival rate was near 50%.

PC 9 cells = assay: Extracellular HMGB1 Western blot, PC 9; type: cell-based, human
Experimental: HMGB 1 is a chromatin-binding protein and plays an important role as an indicator in the peptide induced immunogenic cell death. In one embodiment, the PC 9 cells were seeded at the density of 2 × 10^4 cells/well under the culture condition in 6-well plate as mentioned earlier in the cell viability determination and left to adhere for 48 hrs. The cells were treated with 56.22 µM of SEQ ID NO:3, 128.38 µM of SEQ ID NO:4 and 142.9 µM of SEQ ID NO: 5 peptides which is the two-fold IC50 concentration for 1 hour (FIG. 4A), 2 hour (FIG. 4B), 4 hour (FIG. 4C) under the incubation condition of humidified 5% CO2 and 37° C. The ICD peptides used were dissolved thoroughly in the serum-free medium (RPMI 1640) before treating the cells.
After the treatment of ICD peptides, the supernatant and lysate of the cells were collected separately for the further experiment. The supernatant was centrifuged at the speed of 1,500 RCF while the cell lysate was undergoing the centrifugation at 14,000 rpm for 5 minutes under the temperature of 4° C. Then, the pellet collected from the supernatant and supernatant of centrifuged cell lysate were discarded. The harvested pellet of cell lysate was washed twice using 200 µL PBS each time preliminarily the sonication of the pellet using bio-disruptor. The disrupted pellet was centrifuged again for 10 minutes under 14,000 rpm and 4° C.
The concentration of the samples was quantified using the commercially available protein quantification assay such as Bradford assay to make sure the amount of the protein was equally loaded in each of the well for SDS-PAGE gel.
The transfer process from polyacrylamide gel to PVDF membrane was performing for 75 minutes under 30 V and 400 mA as well as semi-dry condition. PBST buffer was used to wash the PVDF membrane three times after the transfer process.
The anti-HMGB1 antibody (Abcam, Cambridge, UK, ab18256) will be the primary antibody and incubated overnight at 4° C. in the dilution ratio of 1: 1000. […]

Compound: CC(=O)N[C@@H](C)C(=O)N[C@@H](CCCCN)C(=O)N[C@@H](CCCNC(=N)N)C(=O)N[C@@H](Cc1ccc2ccccc2c1)C(=O)N[C@@H](Cc1ccc2ccccc2c1)C(=O)NCC(=O)N[C@@H](Cc1ccc(O)cc1)C(=O)N[C@@H](CCCCN)C(=O)N[C@@H](CCCNC(=N)N)C(=O)N[C@@H](CCCCN)C(=O)N[C@@H](Cc1ccccc1)C(=O)N[C@@H](Cc1ccc2ccccc2c1)C(N)=O [SEQ ID NO:3, Ac-AKR Nal Nal GYKRKFNal-NH2] (Ac-AKR[2Nal][2Nal]GYKRKF[2Nal]-NH2)
- cell viability percentage [1]: lower than 20%
- cell viability percentage [2]: lower than 20%
- IC50 [3]: 11.1 ± 1.37 µM
- cell survival rate (MN-11 cell line): ~50%
- HMGB1 in supernatant (PC 9 cells; PC 9, 2 × IC50, 1 hour): nothing is observed
- HMGB1 in supernatant (PC 9 cells; PC 9, 2 × IC50, 2 hours): can be detected
- HMGB1 in supernatant (PC 9 cells; PC 9, 2 × IC50, 4 hours): obviously be seen
